The values that follow come from patent publication US20220213156A1, “Peptides for use in therapy or prophylaxis of Herpesviridae-infections” (priority 2019, published 2022).

SMILES strings stand for the structures. Residues, ends and D or L forms follow the SMILES beside them.

The test system of one series is HCMV TB40/E-ΔUL16-eGFP. Description: Infection assay: HFF infected with TB40E-ΔUL16-EGFP and treated with HD5-derived peptides (screening, GFP+/DAPI+). The class given is cell-based, Human Cytomegalovirus. Particulars: 75 μM peptide, MOI 0,5, 40 h, compared to other tested peptides. On the procedure:
For the infection assays, the cells were sown in 96-well plates. Human foreskin fibroblasts (HFF) and ARPE-19 cells (Adult Retinal Pigment Epithelial cell line-19) were seeded with 10 000 cells in 200 μl medium per well, macrophages with 20 000 cells in 200 μl medium per well and THP with 50 000 cells in 200 μl per well. The cells were incubated overnight at 37° C. and 5% CO2 and treated the following day. A medium change to P/S-free medium was performed to avoid interaction between the antibiotics used and the peptide sequences. Afterwards the corresponding peptides were added in different concentrations and immediately afterwards the virus, the final volume was 100 μl per well. The virus of the strain TB40/E-ΔUL16-eGFP was used. TB40-ΔUL16-eGFP is a derivative of the strain TB40, in which the majority of the open reading frame UL16 has been replaced by the open reading frame of eGFP, essentially as described in detail for a homologous mutant of strain AD169 (Tischer et al., “Two-step red-mediated recombination for versatile high-efficiency markerless DNA manipulation in Escherichia coli”, Biotechniques, (2006), 40(2):191-7). […] The required volume of the virus stock was calculated using the titer according to the following formula: […]

For series [1], the system named is HFF, ARPE-19 and macrophages. Description: Impedance measurement (xCELLigence) toxicity study. The class given is cell-based, human. Particulars: ARPE-19, macrophages, 72 h impedance. The source says: The “xCELLigence” system (ACEA Biosciences Inc.) was used for a more detailed toxicity study. The principle is based on a measurement of the electrical resistance caused by adhesive cells on the bottom of a 96-well plate equipped with microelectrodes. Cell proliferation causes an increase in resistance due to the partial isolation of the electrodes, while events leading to altered cell morphology or cell detachment lead to reduced resistance (Diemert et al. “Impedance measurement for real time detection of neuronal cell death”, J Neurosci Methods, 203(1):69-77, 2012)). The experiments were performed with HFF, ARPE-19 and macrophages, the appropriate cell numbers were determined in a preliminary experiment without treatment with peptides.
On the first day 10 000 HFF or ARPE-19 or 20 000 macrophages per well were sown. […] Then a blank value was measured and the cells were added in corresponding numbers in 150 μl medium each, the final volume was 200 μl per well. The plate was placed in the “xCELLigence” and the impedance was measured at 37° C. and 5% CO2 over 24 h every 30 min. […] Afterwards, the resistance at the bottom of the 96-well plate was measured every 30 min for a further 72 h. The resistance of the tritone was measured with a positive control of 10% tritone. From the measured impedance values, the RTCA software calculated the so-called cell index according to the following formula: […]

As to `C[C@H](N)C(=O)N[C@H](C(=O)N[C@@H](CS)C(=O)N[C@@H](Cc1ccc(O)cc1)C(=O)N[C@@H](CS)C(=O)N[C@@H](CCCNC(=N)N)C(=O)N[C@H](C(=O)NCC(=O)N[C@@H](CCCNC(=N)N)C(=O)O)[C@@H](C)O)[C@@H](C)O` [HD5 (1-9), ATCYCRTGR] (H-ATCYCRTGR-OH; N-terminus and C-terminus assumed), in the series with HCMV TB40/E-ΔUL16-eGFP, the “antiviral effect (infection rate GFP+/DAPI+)” value is “excellent antiviral effect”. Moreover, in series [1], the “concentration up to which no cytotoxicity is shown” value was “up to 150 μM”.
